The text below walks through data of patent publication US20260132132A1, “3A,4,5,6-TETRAHYDRO-1 H-PYRAZOLO[3,4-C]PYRIDIN-7(7AH)-ONE DERIVATIVES AS FACTOR XIIA INHIBITORS” (KALVISTA PHARMACEUTICALS LIMITED, priority 2022, published 2026).

The target of assay [1] is T1, Human Factor XIIa (hFXIIa) (Homo sapiens, UniProt P00748).
T1 construct: purchased Enzyme Research Laboratories
T1 sequence (P00748 373-615 limits assumed): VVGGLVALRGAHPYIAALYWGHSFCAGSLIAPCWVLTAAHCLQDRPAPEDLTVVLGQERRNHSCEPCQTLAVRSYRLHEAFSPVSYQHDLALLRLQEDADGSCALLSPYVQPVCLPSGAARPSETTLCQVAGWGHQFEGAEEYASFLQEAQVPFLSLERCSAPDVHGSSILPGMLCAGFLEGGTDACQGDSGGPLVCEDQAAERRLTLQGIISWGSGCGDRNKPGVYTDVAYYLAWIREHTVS
T1 sequence (P00748 20-372 partner limits assumed): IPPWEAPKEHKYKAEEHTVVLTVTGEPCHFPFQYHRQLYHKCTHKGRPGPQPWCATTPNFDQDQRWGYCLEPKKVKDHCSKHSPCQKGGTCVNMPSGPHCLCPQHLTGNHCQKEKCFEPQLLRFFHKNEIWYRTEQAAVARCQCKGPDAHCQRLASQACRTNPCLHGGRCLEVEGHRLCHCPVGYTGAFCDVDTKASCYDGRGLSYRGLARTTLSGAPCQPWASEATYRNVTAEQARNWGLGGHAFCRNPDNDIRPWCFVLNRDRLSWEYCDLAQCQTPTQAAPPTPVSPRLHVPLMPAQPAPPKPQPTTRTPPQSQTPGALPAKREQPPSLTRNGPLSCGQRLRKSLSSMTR
Briefly: Determination of Human Factor XIIa (hFXIIa) inhibition, fluorogenic substrate IC50 assay. Format: biochemical. Particulars: fluorogenic substrate H-DPro-Phe-Arg-AFC at Km, 25° C., read-out: Human FXIIa IC50. The procedure:
Determination of Human Factor XIIa (hFXIIa) inhibition
The Km for the cleavage of the substrate by hFXIIa was determined by standard transformation of the Michaelis-Menten equation, with subsequent inhibition assays performed at substrate Km concentration.

The target in a further assay is FXa (Homo sapiens, UniProt P00742). Briefly: Related protease inhibition: FXa, fluorogenic substrate. Particulars: fluorogenic substrate at Km, 25° C.; H1-H3 = % activity at 40 μM. Format: biochemical. The procedure:
Human serine protease enzyme Plasma Kallikrein, KLK1, FXa, Plasmin, Thrombin and Trypsin were assayed for enzymatic activity using an appropriate fluorogenic substrate at Km concentration, FXIa at fixed substrate concentration of 100 μM and various concentrations of the test compound.

Some results are limits rather than exact numbers.

FXa, sequence (P00742 235-488 limits assumed): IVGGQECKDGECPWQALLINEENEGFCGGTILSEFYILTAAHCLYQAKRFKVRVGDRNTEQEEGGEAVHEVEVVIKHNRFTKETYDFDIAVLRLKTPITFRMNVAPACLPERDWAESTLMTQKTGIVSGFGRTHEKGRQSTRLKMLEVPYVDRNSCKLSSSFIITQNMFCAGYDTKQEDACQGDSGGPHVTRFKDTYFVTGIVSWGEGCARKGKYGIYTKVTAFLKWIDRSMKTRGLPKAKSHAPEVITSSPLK
FXa, sequence (P00742 41-179 partner limits assumed): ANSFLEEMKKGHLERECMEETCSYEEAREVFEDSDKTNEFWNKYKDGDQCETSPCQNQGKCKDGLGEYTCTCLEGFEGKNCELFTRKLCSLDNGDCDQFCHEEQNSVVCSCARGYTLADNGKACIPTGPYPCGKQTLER

Usually IC50 stands for the concentration needed to halve the response being measured. Turning to `Cc1cncc(CNC(=O)c2nn(-c3cccc(Cl)c3)c3c2CCN(c2ccc4c(c2)CN(CCO)CC4)C3=O)c1` [Example 1126, 1-(3-chlorophenyl)-6-(2-(2-hydroxyethyl)-1,2,3,4-tetrahydroisoquinolin-7-yl)-N-((5-methylpyridin-3-yl)methyl)-7-oxo-4,5,6,7-tetrahydro-1H-pyrazolo[3,4-c]pyridine-3-carboxamide], the IC50 in assay [1] lay within 10 to 100 nM; against FXa it was 10 to 40 µM.
In the same order, the values of `NC(=O)CN1CCc2ccc(N3CCc4c(C(=O)NCC5CC5)nn(-c5cccc(Cl)c5)c4C3=O)cc2C1=O` [Example 1333, 6-(2-(2-amino-2-oxoethyl)-1-oxo-1,2,3,4-tetrahydroisoquinolin-7-yl)-1-(3-chlorophenyl)-N-(cyclopropylmethyl)-7-oxo-4,5,6,7-tetrahydro-1H-pyrazolo[3,4-c]pyridine-3-carboxamide] are 300 to 1000 nM and more than 4 µM.
Regarding `CN1CCc2ccc(N3CCc4c(C(=O)NCc5cccnc5)nn(-c5cccc(Cl)c5)c4C3=O)cc2C1` [Example 1015, 1-(3-chlorophenyl)-6-(2-methyl-1,2,3,4-tetrahydroisoquinolin-7-yl)-7-oxo-N-(pyridin-3-ylmethyl)-4,5,6,7-tetrahydro-1H-pyrazolo[3,4-c]pyridine-3-carboxamide], the values for the IC50 (in assay [1]; against FXa) were 100 to 300 nM and 10 to 40 µM, respectively.
For `CN1CCc2ccc(N3CCc4c(C(=O)NCC(=O)O)nn(-c5cccc(Cl)c5)c4C3=O)cc2C1=O` [Example 1341, (1-(3-chlorophenyl)-6-(2-methyl-1-oxo-1,2,3,4-tetrahydroisoquinolin-7-yl)-7-oxo-4,5,6,7-tetrahydro-1H-pyrazolo[3,4-c]pyridine-3-carbonyl)glycine] the same measures were 300 to 1000 nM and 10 to 40 µM.
In the same order, the values of `CCNC(=O)c1nn(-c2cc(Cl)cc(CO)c2)c2c1CCN(c1ccc3c(c1)C(=O)N(C)CC3)C2=O` [Example 2033, 1-(3-chloro-5-(hydroxymethyl)phenyl)-N-ethyl-6-(2-methyl-1-oxo-1,2,3,4-tetrahydroisoquinolin-7-yl)-7-oxo-4,5,6,7-tetrahydro-1H-pyrazolo[3,4-c]pyridine-3-carboxamide] are 300 to 1000 nM and more than 40 µM.
For `CCNC(=O)c1nn(-c2cccc(Cl)c2)c2c1CCN(c1cccc(N3CCC4(CC4)C3=O)c1)C2=O` [Example 1400, 1-(3-chlorophenyl)-N-ethyl-7-oxo-6-(3-(4-oxo-5-azaspiro[2.4]heptan-5-yl)phenyl)-4,5,6,7-tetrahydro-1H-pyrazolo[3,4-c]pyridine-3-carboxamide] the same measures were 1000 to 3000 nM and more than 40 µM.
On to `O=C(NCC1CC1)c1nn(-c2cccc(Cl)c2)c2c1CCN(c1ccc3c(c1)CN(CCO)CC31CC1)C2=O` [Example 1143, 1-(3-chlorophenyl)-N-(cyclopropylmethyl)-6-(2′-(2-hydroxyethyl)-2′,3′-dihydro-1′H-spiro[cyclopropane-1,4′-isoquinolin]-7′-yl)-7-oxo-4,5,6,7-tetrahydro-1H-pyrazolo[3,4-c]pyridine-3-carboxamide], for which the IC50 in assay [1] fell in the range of 100 to 300 nM; at FXa it was 3 to 10 µM.
For `CCN1CCc2ccc(N3CCc4c(C(=O)NC5COCC5(C)C)nn(-c5cccc(Cl)c5)c4C3=O)cc2C1` (centres unmarked) [Example 1092, 1-(3-chlorophenyl)-N-(4,4-dimethyltetrahydrofuran-3-yl)-6-(2-ethyl-1,2,3,4-tetrahydroisoquinolin-7-yl)-7-oxo-4,5,6,7-tetrahydro-1H-pyrazolo[3,4-c]pyridine-3-carboxamide] the same measures were 100 to 300 nM and more than 40 µM.
In the same order, the values of `Cc1ccncc1CNC(=O)c1nn(-c2cccc(Cl)c2)c2c1CCN(c1ccc3c(c1)CN(CCO)CC3)C2=O` [Example 1110, 1-(3-chlorophenyl)-6-(2-(2-hydroxyethyl)-1,2,3,4-tetrahydroisoquinolin-7-yl)-N-((4-methylpyridin-3-yl)methyl)-7-oxo-4,5,6,7-tetrahydro-1H-pyrazolo[3,4-c]pyridine-3-carboxamide] are 10 to 100 nM and 10 to 40 µM.
In the case of `Cc1cc(CNC(=O)c2nn(-c3cccc(C#N)c3)c3c2CCN(c2ccc4c(c2)C(=O)N(C)CC4)C3=O)nn1C` [Example 2012, 1-(3-cyanophenyl)-N-((1,5-dimethyl-1H-pyrazol-3-yl)methyl)-6-(2-methyl-1-oxo-1,2,3,4-tetrahydroisoquinolin-7-yl)-7-oxo-4,5,6,7-tetrahydro-1H-pyrazolo[3,4-c]pyridine-3-carboxamide], the IC50 in assay [1] was 300 to 1000 nM; against FXa it was more than 40 µM.
For `O=C(N[C@H](CO)c1ccccc1)c1nn(-c2cccc(Cl)c2)c2c1CCN(c1cccc(CN3CCCCC3)c1)C2=O` [Example 1008, (S)-1-(3-chlorophenyl)-N-(2-hydroxy-1-phenylethyl)-7-oxo-6-(3-(piperidin-1-ylmethyl)phenyl)-4,5,6,7-tetrahydro-1H-pyrazolo[3,4-c]pyridine-3-carboxamide] the same measures were 300 to 1000 nM and more than 100 µM.
In the same order, the values of `CN1CCc2ccc(N3CCc4c(C5=NCCO5)nn(-c5cccc(Cl)c5)c4C3=O)cc2C1=O` [Example 1353, 7-(1-(3-Chlorophenyl)-3-(4,5-dihydrooxazol-2-yl)-7-oxo-1,4,5,7-tetrahydro-6H-pyrazolo[3,4-c]pyridin-6-yl)-2-methyl-3,4-dihydroisoquinolin-1 (2H)-one] are 300 to 1000 nM and 3 to 10 µM.
In the same order, the values of `Cc1nc2c(CNS(=O)(=O)C3CC3)nn(-c3cccc(Cl)c3)c2c(=O)n1-c1ccc2c(c1)CN(CCO)CC2` [Example 3007, N-[[1-(3-Chlorophenyl)-6-[2-(2-hydroxyethyl)-3,4-dihydro-1H-isoquinolin-7-yl]-5-methyl-7-oxopyrazolo[4,3-d]pyrimidin-3-yl]methyl]cyclopropanesulfonamide] are 300 to 1000 nM and 3 to 10 µM.
Take `CN1CCc2ccc(N3CCc4c(C(=O)N[C@H]5CCOC5)nn(-c5cccc(Cl)c5)c4C3=O)cc2C1=O` [Example 1336, (S)-1-(3-chlorophenyl)-6-(2-methyl-1-oxo-1,2,3,4-tetrahydroisoquinolin-7-yl)-7-oxo-N-(tetrahydrofuran-3-yl)-4,5,6,7-tetrahydro-1H-pyrazolo[3,4-c]pyridine-3-carboxamide]: the IC50 in assay [1] was 300 to 1000 nM; against FXa, more than 40 µM.
With `CN(Cc1ccccc1)C(=O)c1nn(-c2cccc(Cl)c2)c2c1CCN(c1cccc(CN3CCCCC3)c1)C2=O` [Example 1004, N-benzyl-1-(3-chlorophenyl)-N-methyl-7-oxo-6-(3-(piperidin-1-ylmethyl)phenyl)-4,5,6,7-tetrahydro-1H-pyrazolo[3,4-c]pyridine-3-carboxamide], the IC50 in assay [1] was 1000 to 3000 nM; on FXa, more than 40 µM.
In the case of `COCCN1CCc2ccc(N3CCc4c(C(=O)NCC5CC5)nn(-c5cccc(Cl)c5)c4C3=O)cc2C1=O` [Example 1261, 1-(3-chlorophenyl)-N-(cyclopropylmethyl)-6-(2-(2-methoxyethyl)-1-oxo-1,2,3,4-tetrahydroisoquinolin-7-yl)-7-oxo-4,5,6,7-tetrahydro-1H-pyrazolo[3,4-c]pyridine-3-carboxamide], the IC50 in assay [1] was 300 to 1000 nM; at FXa, more than 40 µM.
Take `Cc1ccc(-n2nc(C(=O)NCc3cnccc3C)c3c2C(=O)N(c2ccc4c(c2)CN(CCO)CC4)CC3)cc1Cl` [Example 2007, 1-(3-chloro-4-methylphenyl)-6-(2-(2-hydroxyethyl)-1,2,3,4-tetrahydroisoquinolin-7-yl)-N-((4-methylpyridin-3-yl)methyl)-7-oxo-4,5,6,7-tetrahydro-1H-pyrazolo[3,4-c]pyridine-3-carboxamide]: the IC50 in assay [1] is 100 to 300 nM; against FXa, more than 40 µM.
For `COc1cc(CNC(=O)c2nn(-c3cccc(Cl)c3)c3c2CCN(c2ccc4c(c2)C(=O)N(C)CC4)C3=O)nn1C` [Example 1186, 1-(3-chlorophenyl)-N-((5-methoxy-1-methyl-1H-pyrazol-3-yl)methyl)-6-(2-methyl-1-oxo-1,2,3,4-tetrahydroisoquinolin-7-yl)-7-oxo-4,5,6,7-tetrahydro-1H-pyrazolo[3,4-c]pyridine-3-carboxamide] the same measures were 100 to 300 nM and 10 to 40 µM.
In the same order, the values of `CCNC(=O)c1nn(-c2cccc(Cl)c2)c2c1CCN(c1ccc3c(c1)C(=O)N(CCO)[C@H](C)CO3)C2=O` [Example 1392, (R)-1-(3-chlorophenyl)-N-ethyl-6-(4-(2-hydroxyethyl)-3-methyl-5-oxo-2,3,4,5-tetrahydrobenzo[f][1,4]oxazepin-7-yl)-7-oxo-4,5,6,7-tetrahydro-1H-pyrazolo[3,4-c]pyridine-3-carboxamide] are 3000 to 10000 nM and more than 40 µM.
